From US8741299B2, “Method for treating pathologies associated with hypoxia using MIF inhibitors” (The Feinstein Institute for Medical Research, priority 2011, dated 2014)
“Also recorded” adds a separate entry of the source.

What was measured:
[1] = test system: Human lung fibroblasts (CCL-210); assay: Hypoxia-induced proliferation of human lung fibroblasts (BrdU incorporation, cell counts); assay type: cell-based
Description: Cell culture studies: Human lung fibroblasts (CCL-210) were purchased from American Type Culture Collection (ATCC, Manassas, Va.). Cells were cultured in Eagle Minimum Essential Medium (EMEM) (ATCC, Manassas, Va.) with 10% fetal bovine serum (FBS) at 37′C, 5% CO2. The cells were subcultured using standard procedures and were used for experiment during passages 3 to 10.
Cell proliferation assessments: 5-bromo-2-deoxyuridine (BrdU) incorporation measured by a commercially available kit (Calbiochem, EMD Chemical Inc., Gibbstown, N.J.) was used to quantify the fibroblast proliferation, BrdU is incorporated into the newly synthesized DNA of replicating cells (during the S phase of the cell cycle). The assay was performed according to the manufacturer's instructions. […] BrdU incorporated in newly synthesized DNA was detected with a BrdU antibody using chemiluminescence for quantification. […]
Hypoxia in vitro: A modular incubator chamber (Billups-Rothenberg Inc., Del Mar, Calif.) was used for the cell hypoxia studies. To induce hypoxia, the chamber was tightly closed and flushed with a gas mixture consisting of 95% nitrogen and 5% CO2 until the desired ambient oxygen concentration of 1% was reached as measured using an oxygen sensor (BioSpherix, Lacona, N.Y.). […]
Cell proliferation, under both normoxic and hypoxic conditions, was then determined using the methods described above.

CCL-210 cells = assay: Lactate dehydrogenase release into the medium of treated cells (cytotoxicity); assay type: cell-based, human; details: at the concentration used (100 μM elsewhere in the source), data not shown
[2] = test system: primary lung fibroblasts (mif-/-); assay: Proliferation of primary mif-/- lung fibroblasts in hypoxia with conditioned medium from hypoxic mif+/+ cells; assay type: cell-based, mouse; details: 1% oxygen; vs carrier DMSO
Description: Primary lung fibroblasts from MIF knockout (mif−/−) or their counterpart wild type C57BL6 mice (mif+/+) were established by using outgrowth from lung explants (36). Briefly, mouse lungs were removed using aseptic technique, carefully dissected free of connective tissue and fat, and cut into small pieces (<1 mm). These lung tissue pieces were cultured in a dish containing EMEM, 10% FBS, and 1% penicillin/streptomycin, at 37° C., 5% CO2 in air. Medium was changed twice a week. After about two weeks, fibroblasts had reached approximately 80% confluence. The fibroblasts were removed by trypsin and filtered using a sterilized 100-μm nylon cell strainer (Falcon) to remove any remaining tissue pieces. […]
Cell proliferation assessments: 5-bromo-2-deoxyuridine (BrdU) incorporation measured by a commercially available kit (Calbiochem, EMD Chemical Inc., Gibbstown, N.J.) was used to quantify the fibroblast proliferation, BrdU is incorporated into the newly synthesized DNA of replicating cells (during the S phase of the cell cycle). […] BrdU incorporated in newly synthesized DNA was detected with a BrdU antibody using chemiluminescence for quantification. […]
To further examine the role of MIF in hypoxia-induced fibroblast proliferation, the ability of primary lung fibroblasts (mif^−/− and mir^+/+) cultured under normoxic and hypoxic conditions for 24 hrs, was assessed. […]

C57BL6 mice = assay: Mouse hypoxia model of pulmonary vascular remodeling and hypertension; assay type: in vivo
Description: Hypoxia in vivo: C57BL6 mice (male, 8˜10 weeks old) were purchased from Taconic Farms Inc. (Hudson, N.Y.). All the animals were housed in a pathogen-free environment, under standard light and dark cycles, with free access to food and water until they were used for the experiments. All experiments involving animals were reviewed and approved by Institutional Animal Care and Use Committee of The Feinstein Institute for Medical Research. An animal hypoxia chamber system (BioSpherix, Lacona, N.Y.) was used for the in vivo studies. […] Mice were randomly divided into 4 groups and treated with normoxia, or hypoxia for 3, 10, or 42 days. At the time of euthanasia, animals were anesthetized with isoflurane and 100% oxygen. A 26 gauge needle connected to a transducer was introduced into the right ventricular trans-diaphragmatically. The right ventricular (RV) pressure was measured and recorded using a computerized hemodynamic recording system (HAEMODYN, Harvard Apparatus, Mass.). After the RV pressure measurement, blood was taken from the RV and plasma was stored in −80° C. for MIF measurement. The mice were then euthanized by exsanguination. The hearts were removed, dissected and weighed. The heart weights were expressed as a ratio of the weight of the right ventricle to the weight of the left ventricle+septum (RV/S+LV). The lung was also collected; the left side was used for measure MIF mRNA expression, and the right side fixed, at inflation, in 4% paraformaldehyde for lung vascular histology study. […] Immediately after sub-cutaneous pump implantation on the dorsum of the animals, the mice were put into hypoxia chamber undergoing 10% normobaric hypoxia for 10 days or 21 days. At the indicated times, the RV pressure, heart weight (RV/S+LV), and vascular changes were determined in each group using the methods described above. Vascular wall thickness: Lung tissues were immunostained using anti α-smooth muscle actin (α-SMA) antibody (Abcam Inc, Cambridge Mass.) to reveal the muscular layer of the vessel wall. External diameter (ED) and internal diameter (ID) of 50 alveolar vessels (with ED of 40 to 100 μm) per animal were determined and recorded, by an independent investigator blinded to the sample's origin. The total wall thickness (WT) was measured as the mean distance between the internal and the external diameter. The percentage wall thickness (WT %) was calculated by the formula: WT %=2×WT/ED×100%. (38).

mouse brain = assay: MicroPET 18F-FDG uptake in the brain of hypoxic mice; assay type: in vivo
Description: MicroPET scanning MicroPET scanning can be conducted using an appropriate system, such as Siemen's Inveon. The Inveon is a dedicated small animal positron emission tomography (PET) scanner housed in the Feinstein Institute for Medical Research. This scanner is an ultra-high resolution tomography that includes a built-in transmission source used for the quantitative assessment of radiotracer binding. The use of ^18FDG is preferred.
Scanning methods: All animals being scanned are housed in the Center for Comparative Physiology, within the Feinstein Institute. Animals receive an intraperitoneal (i.p.) injection of ^18FDG (between 1-2 mCi). […] Significant differences in absolute and region-of-interest to whole-brain relative metabolic glucose uptake are analyzed using student t-tests and repeated measures ANOVA.
Further developing these studies, it is herein disclosed that inhibition of MIF prevented altered 2-deoxy-2-(^18F)fluoro-D-glucose (^18F-FDG) uptake in the brain of hypoxic mice (FIG. 8). […] In this study, a standardized uptake value (SUV) (56) was used, a simple semi-quantitative index, calculated by measuring the activity concentration in a region of interest (ROI) during a short-duration (10 min) static scan acquired 60 min after injection and then normalized for the injected dose or weight of the animal. […]

mice = assay: Clock maze task (spatial working memory) in hypoxic mice; assay type: in vivo, mouse; details: hypoxia, ISO-92 delivered to the dorsal hippocampus via osmotic pumps, n=4
Description: Clock maze: A navigational test is used to measure spatial working memory, modified from Deacon and Rawlins (2002). The apparatus (termed “clock maze”) is a circular base platform (diameter, 85 cm) surrounded by a clear wall (30 cm high), sealed to the base by aquarium sealant to make it waterproof. Cold water (20° C.±1° C.) is added to a depth of 2 cm, sufficient to wet the underside of the belly of mice. The perimeter wall is pierced by 12 holes, 4 cm in diameter, arranged equidistantly around the circumference so that they are 23 cm apart. The lower edge of each hole is 3 cm above the maze floor, that is, at mouse head level. Eleven of these tubes were sealed with black plugs, flush with the internal pool wall surface; one is open and led to an escape pipe, which is 4 cm in diameter, made of black flexible plastic. Thus, from within the clock maze, the true exit looks similar to the decoys, even to the human eye. […] The animal is placed facing one of the long sides in a semi-random fashion (not more than 3 consecutive times the same way) and the time taken to enter the open tube was recorded by software (Ethovision). […] The latency to reach the target is recorded by software (Ethovision) with a maximum of 60 sec for each trial. […]
The navigational test that measured spatial working memory was modified from Deacon and Rawlins (2002). […]

[3] = 1.8 mg/kg/day s.c. osmotic pump, 10% oxygen, 10 or 21 days

CC(C)(C)COC(=O)CC1CC(c2ccc(O)c(F)c2)=NO1 (stereo not drawn) [ISO-92]
growth of cells cultured in normoxic conditions ([1]; CCL-210, 100 μM ISO-92, normoxia): no effect
hypoxia-induced cell proliferation ([1]; CCL-210, 1% oxygen, 24 hrs, vs vehicle DMSO): inhibited by ISO-92 in a dose-dependent manner; also recorded: able to inhibit hypoxia-driven proliferation; also recorded: inhibited proliferation in a dose-dependent manner
cytotoxicity / lactate dehydrogenase release into culture medium (CCL-210 cells): not cytotoxic; also recorded: nor did it cause accumulation of lactate dehydrogenase
increased proliferation of mif-/- fibroblasts induced by conditioned medium from hypoxic mif+/+ cells [2]: abrogated; also recorded: inhibitable; also recorded: inhibited
right ventricle hypertrophy (RV/S+LV) (C57BL6 mice; [3]): significantly reduced
right ventricular systolic pressure (RVSP), effect in words (C57BL6 mice; [3]): significantly reduced
vascular wall thickness (VascularWT %) / pulmonary vascular remodeling (C57BL6 mice; [3]): significantly reduced
right ventricular systolic pressure (C57BL6 mice; at 21 days hypoxia, normoxia 13.8±2.3, vehicle 20.2±1.4): 16.8±1.5 mm Hg
reduction of right ventricular systolic pressures (C57BL6 mice; at 21 days hypoxia, relative to vehicle and normoxia): approximately 53%
hypoxia-induced increase in brain glucose metabolism (18FDG images) (mouse brain; 10 days 10% hypoxia, ISO-92 via osmotic pump): blocked completely
semi-quantitative 18F-FDG uptake (SUV) of specific brain regions, median value (mouse brain; 10 days hypoxia, differences not statistically significant): lower in each case
performance in the clock maze task (working memory) (mice): completely normal performance
